ChEMBL document CHEMBL4184243, “Optimization of antimalarial, and anticancer activities of (E)-methyl 2-(7-chloroquinolin-4-ylthio)-3-(4-hydroxyphenyl) acrylate” (Bioorg Med Chem, 2018)
pIC50: −log10 of the molar value.

What was measured:
Lymphocyte = experiment: Cytotoxicity against human lymphocytes after 24 to 48 hrs by MTT assay; format: cell-based
Plasmodium berghei [1] = experiment: Antimalarial activity against chloroquine-susceptible Plasmodium berghei ANKA infected in Balb-C mouse assessed as mean survival days at 10 mg/kg, ip administered once daily for 4 days (reference value: 8.4 +/- 0.15 day); format: functional
Jurkat E6.1 [2] = experiment: Induction of apoptosis in human Jurkat E6-1 cells assessed as late apoptotic cells at 5 uM after 24 hrs by Annexin-V-FITC/propidium iodide staining based flow cytometric analysis (reference value: 0.73 +/- 0.14 %); format: functional
Jurkat E6.1 [3] = experiment: Cytotoxicity against human Jurkat E6-1 cells after 24 hrs by MTT assay; format: functional, cell-based; conditions: Jurkat E6.1, 24 h
[4] = Safety index, ratio of test compound IC50 to doxorubicin IC50 for human lymphocytes; format: ADME, cell-based, Lymphocyte; conditions: read-out: Ratio IC50
Jurkat E6.1 [5] = experiment: Induction of apoptosis in human Jurkat E6-1 cells assessed as necrotic cells at 5 uM after 24 hrs by Annexin-V-FITC/propidium iodide staining based flow cytometric analysis (reference value: 1.26 +/- 0.24 %); format: functional
[6] = Selectivity index, ratio of IC50 for human lymphocytes to IC50 for human Jurkat E6-1 cells; format: toxicity; conditions: human lymphocytes versus Jurkat E6-1 cells, read-out: Ratio IC50
HL-60 [7] = experiment: Cytotoxicity against human HL60 cells after 24 hrs by MTT assay; format: functional, cell-based; conditions: HL-60, 24 h
[8] = Inhibition of beta-hematin formation assessed as reduction in acetate buffer-initiated hemozoin formation measured after 48 hrs; set-up: concentration or dose not given beside the values; conditions: concentration not given here
Plasmodium berghei [9] = experiment: Antimalarial activity against chloroquine-susceptible Plasmodium berghei ANKA infected in Balb-C mouse assessed as parasitemia at 10 mg/kg, ip administered once daily for 4 days measured post last dose by Giemsa staining based method (reference value: 65.8 +/- 4.38%); format: functional
[10] = Selectivity index, ratio of IC50 for human lymphocytes to IC50 for human HL60 cells; format: toxicity; conditions: human lymphocytes versus HL60 cells, read-out: Ratio IC50
HL-60 [11] = experiment: Induction of apoptosis in human HL60 cells assessed as early apoptotic cells at 5 uM after 24 hrs by Annexin-V-FITC/propidium iodide staining based flow cytometric analysis (reference value: 0.36 +/- 0.02 %); format: functional
Mus musculus [12] = experiment: Toxicity in Balb-C mouse infected with chloroquine-susceptible Plasmodium berghei ANKA assessed as effect on body weight at 20 mg/kg, ip administered once daily for 4 days measured at 30 days post infection; format: organism-based; conditions: in vivo, 720 h
Jurkat E6.1 [13] = experiment: Induction of apoptosis in human Jurkat E6-1 cells assessed as early apoptotic cells at 5 uM after 24 hrs by Annexin-V-FITC/propidium iodide staining based flow cytometric analysis (reference value: 0.5 +/- 0.07 %); format: functional
HL-60 [14] = experiment: Induction of apoptosis in human HL60 cells assessed as necrotic cells at 5 uM after 24 hrs by Annexin-V-FITC/propidium iodide staining based flow cytometric analysis (reference value: 1.96 +/- 0.33 %); format: functional
HL-60 [15] = experiment: Induction of apoptosis in human HL60 cells assessed as late apoptotic cells at 5 uM after 24 hrs by Annexin-V-FITC/propidium iodide staining based flow cytometric analysis (reference value: 0.85 +/- 0.13 %); format: functional
Mus musculus [16] = experiment: Toxicity in Balb-C mouse infected with chloroquine-susceptible Plasmodium berghei ANKA assessed as survival at 20 mg/kg, ip administered once daily for 4 days measured at 30 days post infection; format: organism-based; conditions: in vivo, 720 h

COC(=O)/C(=C\c1ccc(OC(=O)c2ccc(OC)c(OC)c2OC)cc1)Sc1ccnc2cc(Cl)ccc12
pIC50 (Lymphocyte): 4.65 | MSD (Plasmodium berghei [1]): 29.83 days | Activity (Jurkat E6.1 [2]): 4.12% | pIC50 (Jurkat E6.1 [3]): 5.62 | selectivity ratio [4]: 5.1 | Activity (Jurkat E6.1 [5]): 55.6% | selectivity ratio [6]: 9.27 | pIC50 (HL-60 [7]): 5.68 | inhibition [8]: 85.1% | Activity (Plasmodium berghei [9]): 1% | selectivity ratio [10]: 10.8 | Activity (HL-60 [11]): 0.75% | Activity (Mus musculus [12]): Non-Toxic | Activity (Jurkat E6.1 [13]): 0.58% | Activity (HL-60 [14]): 62.1% | Activity (HL-60 [15]): 7.38% | Activity (Mus musculus [16]): Non-Toxic
